According to ChEMBL document CHEMBL4483862, “Open-source discovery of chemical leads for next-generation chemoprotective antimalarials” (2018):
pIC50: −log10 of the molar value.

System: Plasmodium berghei
Assay: Luciferase/luciferin-expressing antifolate-resistant parasites were used to infect a culture of HepG2 cells that were pre-incubated with compounds. Infected hepatocytes emit light due to the luciferase reaction. Assay results are presented as the percent inhibition of light emission compared to control. […]
Type: functional
Conditions: sporozoite; for pIC50: read-out: LUCIFERASE INFECTION ASSAY - IC50; for IC90: read-out: LUCIFERASE INFECTION ASSAY - IC90

| Compound | pIC50 | IC90 |
| --- | --- | --- |
| CN(C)CCNC(=O)c1ccc(-c2cn3c(-c4ccc(Oc5ccccc5)cc4)cnc3cn2)cc1 | 5.24 | > 6.91 µM |
| COc1ccc(-c2cnc3cnc(-c4ccc(N5CCN(C)CC5)cc4)cn23)cn1 | < 5.08 | > 8.24 µM |
| CN(C)C(=O)c1cccc(-c2cn3c(-c4ccc(N(C)C)cc4)cnc3cn2)c1 | 5.36 | 7.57 µM |
| COc1ccc(-c2cn3c(-c4cccc(O)c4)cnc3cn2)cn1 | < 4.98 | > 10.4 µM |
| Cn1ccc2cc(-c3cn4c(-c5ccc6ncccc6c5)cnc4cn3)ccc21 | 5.87 | 3.52 µM |
| Clc1ccc(-c2cnc3cnc(-c4ccsc4)cn23)cc1 | 5.61 | 8.06 µM |
| CN(C)CCNC(=O)c1ccc(-c2cn3c(-c4ccc(N(C)C)cc4)cnc3cn2)cc1 | < 5.11 | > 7.7 µM |
| N#Cc1ccc(-c2cnc3cnc(-c4cccc(N)c4)cn23)cc1 | 5.59 | 4.97 µM |
| CN1CCN(c2ccc(-c3cn4c(-c5ccc(Oc6ccccc6)cc5)cnc4cn3)cn2)CC1 | 5.17 | > 7.13 µM |
| OCc1ccc(-c2cnc3cnc(-c4cnn(Cc5ccccc5)c4)cn23)cc1 | < 5.06 | > 8.65 µM |
| COc1cccc(-c2cn3c(-c4ccc(CO)cc4)cnc3cn2)c1F | 5.05 | > 9.45 µM |
| c1cc(NCCN2CCOCC2)ncc1-c1cn2c(-c3ccc4c(c3)OCO4)cnc2cn1 | < 5.13 | > 7.42 µM |
| Clc1ccccc1-c1cnc2cnc(-c3cnn(Cc4ccccc4)c3)cn12 | < 5.07 | > 8.55 µM |
| CN(C)c1cccc(-c2cnc3cnc(-c4cnn(Cc5ccccc5)c4)cn23)c1 | < 5.08 | > 8.37 µM |
| CSc1ccc(-c2cn3c(-c4ccc(CO)cc4)cnc3cn2)cc1 | < 5.02 | > 9.5 µM |
| CN(C)CCCNC(=O)c1ccc(-c2cn3c(-c4cccc(Cl)c4)cnc3cn2)cc1 | < 5.12 | > 7.6 µM |
| OCc1ccc(-c2cnc3cnc(-c4ccc(CNc5ccccc5)cc4)cn23)cc1 | 5.22 | > 8.12 µM |

| Compound | pIC50 | IC90 |
| --- | --- | --- |
| CCOc1cccc(-c2cn3c(-c4ccc(Cl)cc4)cnc3cn2)c1 | 5.05 | > 9.43 µM |
| CCOc1cccc(-c2cn3c(-c4ccsc4)cnc3cn2)c1 | 5.26 | 9.69 µM |
| CN1CCN(c2ccc(-c3cn4c(-c5ccc(F)c(Cl)c5)cnc4cn3)cn2)CC1 | < 5.11 | > 7.8 µM |
| COc1ccc(-c2cnc3cnc(-c4ccc(CNc5ccccc5)cc4)cn23)cn1 | 5.57 | 8.05 µM |
| Nc1ccc(-c2cn3c(-c4ccc(CO)cc4)cnc3cn2)cn1 | 5.24 | 9.13 µM |
| COc1ccc(-c2cnc3cnc(-c4ccccc4C)cn23)cn1 | 5.66 | 4.17 µM |
| Oc1ccc(-c2cn3c(-c4ccsc4)cnc3cn2)cc1 | 4.97 | > 11.2 µM |
| OC[C@H]1O[C@@H](c2nc(-c3ccc4c(c3)CCO4)no2)[C@H](O)[C@@H]1O | < 4.99 | > 10.3 µM |
| CN(C)c1ccccc1-c1cn2c(-c3cccc(O)c3)cnc2cn1 | < 5.00 | > 9.99 µM |
| CN(C)c1cccc(-c2cnc3cnc(-c4ccccc4)cn23)c1 | < 4.98 | > 10.5 µM |
| CN(C)CCNC(=O)c1ccc(-c2cn3c(-c4cccc(Cl)c4)cnc3cn2)cc1 | < 5.10 | > 7.86 µM |
| CC(C)Oc1cccc(-c2cn3c(-c4ccccc4Cl)cnc3cn2)c1 | < 5.04 | > 9.07 µM |
| Cn1cc(-c2cnc3cnc(-c4cccc(Cl)c4)cn23)cn1 | < 4.97 | > 10.7 µM |
| Cn1ccc2cc(-c3cn4c(-c5ccc(Cl)cc5)cnc4cn3)ccc21 | 6.61 | 0.448 µM |
| c1ccc(Oc2ccc(-c3cnc4cnc(-c5cccnc5)cn34)cc2)cc1 | 5.52 | 6.96 µM |
| O=C(NCCO)c1ccc(-c2cn3c(-c4ccc(Oc5ccccc5)cc4)cnc3cn2)cc1 | < 5.13 | > 7.33 µM |
| CN(C)CCNC(=O)c1ccc(-c2cn3c(-c4ccsc4)cnc3cn2)cc1 | < 5.07 | > 8.43 µM |
